Data taken from patent publication US7186741B2, “Neurotensin active 2,3,diaryl-pyrazolidine derivatives” (Solvay Pharmaceuticals B.V., priority 2002, dated 2007).

Test system: enzymes which degrade the neuropeptide neurotensin
Experiment: pharmacological activity of stereoisomers/racemates (test not specified)
Type: biochemical
Conditions: result in words; comparison of enantiomers or diastereomeric racemates
From the text: The invention relates to a group of new 2,3-diaryl-pyrazolidine derivatives having inhibiting activity on enzymes which degrade the neuropeptide neurotensin.
The compounds according to the invention are active in inhibiting the abovementioned enzymes in the range of 5.0–8.0 (plC50 values), when tested according to the methods described in Biochem. J. 280, 421–426, and Eur. J. Biochem. 202, 269–276.

pharmacological activity (active / inactive racemate, eutomer): eutomer
SMILES: O=C(NCC(=O)N1CCC(c2ccccc2Cl)N1c1ccccc1Cl)NC1C2CC3CC(C2)CC1C3 (stereo not shown) [Compound A12]
